Patent US9808528B2, “Protein-polymer-drug conjugates and methods of using same” (priority 2014, dated 2017)
pIC50: −log10 of the molar value.

Legend:
HL-60 cells = assay: Tumor growth response, HL-60 xenograft; assay type: in vivo, mice; conditions: single IV dose day 1; 20 mg/kg
Protocol: Female NCr nu/nu mice were inoculated subcutaneously with HL-60 cells (n=10 for each group). Test compounds or vehicle were dosed IV as a single dose on day 1. Tumor size was measured at the times indicated in FIGS. 1 to 6 using digital calipers. Tumor volume was calculated and was used to determine the delay in tumor growth. Mice were sacrificed when tumors reached a size of 800 to 1500 mm^3. Tumor volumes are reported as the mean±SEM (“standard error of mean”) for each group.
Female NCr nu/nu mice were inoculated subcutaneously with HL-60 cells (n=10 for each group). Test compounds or vehicle were dosed IV as a single dose on day 1. Tumor size was measured at the times indicated in FIG. 3 using digital calipers. Tumor volume was calculated and was used to determine the delay in tumor growth. Mice were sacrificed when tumors reached a size of 2000 mm^3. Tumor volumes are reported as the mean±SEM for each group.

NCI-N87 cells = assay: Tumor growth response, NCI-N87 xenograft; assay type: in vivo, mice
Protocol: (§1) Female CB-17 SCID mice were inoculated subcutaneously with BT474 tumor fragments (n=10 for each group) or JIMT-1 cells (n=10 for each group) or NCI-N87 cells (n=10 for each group). […] Test compounds or vehicle were dosed IV as a single dose on day 1. Tumor size was measured at the times indicated in FIGS. 1 to 6 using digital calipers. Tumor volume was calculated and was used to determine the delay in tumor growth. Mice were sacrificed when tumors reached a size of 800 to 1500 mm^3. Tumor volumes are reported as the mean±SEM (“standard error of mean”) for each group.

MCF7 = assay: Cell viability assay (Cell Titer-Glo); assay type: cell-based; conditions: 72 h incubation; HER2 low expressing cells; AF-HPA as toxin equivalents
Protocol: (§2) PBRM-polymer-drug conjugates were evaluated for their antiproliferation properties in tumor cell lines in vitro using Cell Titer-Glo (Promega Corp). Cells were plated in black walled 96-well plate and allowed to adhere overnight at 37° C. in a humidified atmosphere of 5% CO2. SKBR3, BT474, NCI-N87 cells (HER2 expressing cells), MCF7 cells (HER2 low expressing levels cells) and JIMT1 cells (HER2 medium expression level cells) were plated at a density of 5,000 cells per well. The next day the medium was replaced with 50 μL fresh medium and 50 μL of 2× stocks of PBRM-polymer-drug conjugate, drug polymer conjugate or drug were added to appropriate wells, mixed and incubated for 72 h. Cell Titer-Glo reagent was added to the wells at room temperature and the luminescent signal was measured after 10 min using a SpectraMax M5 plate reader (Molecular Devices). Dose response curves were generated using SoftMax Pro software. IC50 values were determined from four-parameter curve fitting.

JIMT1 = assay: Cell viability assay (Cell Titer-Glo); assay type: cell-based; conditions: 72 h incubation; HER2 medium expression level cells; AF-HPA as toxin equivalents
Protocol: as §2

BT474 = assay: Cell viability assay (Cell Titer-Glo); assay type: cell-based, human; conditions: 72 h incubation; AF-HPA as toxin equivalents
Protocol: as §2

N87 = assay: Cell viability assay (Cell Titer-Glo); assay type: cell-based; conditions: 72 h incubation; AF-HPA as toxin equivalents
Protocol: as §2

BT474 tumor fragments = assay: Tumor growth response, BT474 xenograft; assay type: in vivo, mice
Protocol: as §1

hErbB2 = hErbB2 (Homo sapiens, UniProt P04626); assay: Ligand binding studies by BIAcore surface plasmon resonance (SPR); conditions: 25° C.; immobilized hErbB2; BioRad ProteOn XPR36
Protocol: The kinetic binding of the PBRM-polymer-drug conjugate to an immobilized receptor is determined by BIAcore SPR. The binding constants for the PBRM in the PBRM-polymer-drug conjugate and PBRM alone can be determined using standard BIAcore procedures.
The kinetic binding of the PBRM-polymer-drug conjugate to an immobilized receptor was determined by BIAcore SPR.

SKBR3 = assay: Cell viability assay (Cell Titer-Glo); assay type: cell-based; conditions: 72 h incubation; AF-HPA as toxin equivalents
Protocol: as §2

JIMT-1 cells = assay: Tumor growth response, JIMT-1 xenograft; assay type: in vivo, mice
Protocol: as §1

HL-60 = assay: Cell viability assay (Cell Titer-Glo); assay type: cell-based; conditions: CD33 expressing cells; 72 h or 6 days incubation
Protocol: Dose response curves were generated using SoftMax Pro software. IC50 values were determined from four-parameter curve fitting.
CD33 expressing cells HL-60 were passed at a density of 5,000 cells per well and treated with PBRM-polymer-drug conjugate on the same day. After 72 h or 6 days incubation, the cells were analyzed using the same procedure described above.

Row | Substance | pIC50 (MCF7) | pIC50 (JIMT1) | pIC50 (BT474) | pIC50 (N87) | pIC50 (SKBR3) | further results
1 | lintuzumab | – | – | – | – | – | tumor volume response (in words), FIG. 3 (HL-60 cells): increase of tumor volume
2 | Rituximab-((EG2-MI (2%)-(10 kDa PHF-BA (28%)-(AF-HPA-Ala (9%)) [Example 16] | 7.55 | 8.73 | 8.52 | 8.28 | – | tumor growth response (in words), FIG. 6 (NCI-N87 cells; single IV dose, Example 14 at […], Example 16 at 3 mg/kg): no effect on tumor growth
3 | Trastuzumab-((EG2-MI (1%))-(10 kDa PHF-GA (29%)-(AF-HPA-Ala (6%)) [Example 13] | – | – | – | – | – | regressions, FIG. 1 (BT474 tumor fragments; 5 mg/kg single IV dose): 100%; tumor free survival, FIG. 1 (BT474 tumor fragments; 5 mg/kg single IV dose): 80%; tumor volume response (in words), FIG. 1 (BT474 tumor fragments; single IV dose day 1, conjugates […] and 5 mg/kg, trastuzumab 10 mg/kg): reduction of tumor volume
4 | Trastuzumab-((EG2-MI (2%)-(10 kDa PHF-BA (28%)-(AF-HPA-Ala (9%) [Example 18A] | 8.02 | 9.80 | 10.40 | 10.22 | 10.70 | ka (association or affinity rate constant) (hErbB2): 4.67 ± 0.7 × 10^5 M^−1s^−1; kd (dissociation rate constant) (hErbB2): 2.07 ± 0.2 × 10^−5 s^−1
5 | Trastuzumab-((EG2-MI (2%)-(10 kDa PHF-BA (28%)-(AF-HPA-Ala (9%) [Example 15] | 7.63 | 9.92 | 10.30 | 9.96 | 11.00 | complete regression out of 10 animals, FIG. 5 (NCI-N87 cells; 1 mg/kg single IV dose): 1; partial regressions out of 10 animals, FIG. 5 (NCI-N87 cells; 1 mg/kg single IV dose): 7; complete responses, FIG. 5 (NCI-N87 cells; 3 mg/kg single IV dose): 100; tumor response (in words), FIG. 5 (NCI-N87 cells; 3 mg/kg single IV dose): complete regression of tumor volume
6 | Trastuzumab-((EG2-MI (2%)-(10 kDa PHF-BA (28%)-(AF-HPA-Ala (9%) [Example 14] | 7.54 | 9.89 | 10.15 | 9.96 | 10.70 | regressions, FIG. 4A (JIMT-1 cells; 2.0 mg/kg single IV dose): 100%; tumor free survival, FIG. 4A (JIMT-1 cells; 2.0 mg/kg single IV dose): 100%; tumor volume response (in words), FIG. 4A (JIMT-1 cells; single IV dose day 1, Example 14 at 2, 0.67 and 0.3 mg/kg, trastuzumab 20 mg/kg, Kadcyla 20 mg/kg): reduction of tumor volume; ka (association or affinity rate constant) (hErbB2): 3.91 ± 0.3 × 10^5 M^−1s^−1; kd (dissociation rate constant) (hErbB2): 2.56 ± 0.1 × 10^−5 s^−1
7 | Rituximab-((EG2-MI (3%)-(10 kDa PHF-BA (30%)-(AF-HPA-Ala (8%)) [Example 9] | – | – | – | – | – | pIC50 (HL-60): 8.17
